One assay has as its target Carbonic anhydrase 12 (Homo sapiens, UniProt O43570). Description: Inhibition of recombinant human CA XII (30 to 291 residues) expressed in escherichia coli BL21 assessed as inhibition constant preincubated for 15 mins by phenol red dye based stopped-flow CO2 hydration assay.
A further assay concerns the target Carbonic anhydrase 1 (Homo sapiens, UniProt P00915). Description: Inhibition of recombinant human CA1 assessed as inhibition constant preincubated for 15 mins by phenol red dye based stopped-flow CO2 hydration assay.
Another assay deals with Carbonic anhydrase 9 (Homo sapiens, UniProt Q16790). Description: Inhibition of recombinant human […] assessed as inhibition constant preincubated for 15 mins by phenol red dye based stopped-flow CO2 hydration assay.
For another assay, the system named is HeLa. Description: Cytotoxicity against human HeLa cells assessed as inhibition of cell viability for 48 hrs by MTT assay. It is filed as functional, cell-based.
The subject of the next assay is A549. Description: Cytotoxicity against human A549 cells assessed as inhibition of cell viability for 48 hrs by MTT assay. Conditions: A549, 48 h. The class given is functional, cell-based.
In the next assay the target is Carbonic anhydrase 2 (Homo sapiens, UniProt P00918). Description: Inhibition of recombinant human […] assessed as inhibition constant preincubated for 15 mins by phenol red dye based stopped-flow CO2 hydration assay.
Another assay has as its system MCF7. Description: Cytotoxicity against human MCF7 cells assessed as inhibition of cell viability for 48 hrs by MTT assay. Conditions: for IC50: MCF7, 48 h. It is filed as functional, cell-based. A general note: Formazan colour is commonly taken as a measure of viable cells.

Activity calls are given as the source filed them. The rule behind the calls is not given here.

Chain of Carbonic anhydrase 12 (O43570 whole entry, the tested form may be a part): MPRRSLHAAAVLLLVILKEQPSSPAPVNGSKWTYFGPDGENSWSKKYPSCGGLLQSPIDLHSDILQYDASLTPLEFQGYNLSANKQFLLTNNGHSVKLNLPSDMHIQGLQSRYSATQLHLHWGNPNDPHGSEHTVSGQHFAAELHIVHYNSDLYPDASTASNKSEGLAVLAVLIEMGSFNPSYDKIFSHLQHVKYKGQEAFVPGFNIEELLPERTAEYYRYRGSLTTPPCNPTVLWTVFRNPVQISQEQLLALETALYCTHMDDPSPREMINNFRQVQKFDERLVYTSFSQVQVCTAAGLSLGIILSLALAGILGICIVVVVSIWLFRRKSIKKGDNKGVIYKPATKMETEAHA
Chain of Carbonic anhydrase 1 (P00915 whole entry): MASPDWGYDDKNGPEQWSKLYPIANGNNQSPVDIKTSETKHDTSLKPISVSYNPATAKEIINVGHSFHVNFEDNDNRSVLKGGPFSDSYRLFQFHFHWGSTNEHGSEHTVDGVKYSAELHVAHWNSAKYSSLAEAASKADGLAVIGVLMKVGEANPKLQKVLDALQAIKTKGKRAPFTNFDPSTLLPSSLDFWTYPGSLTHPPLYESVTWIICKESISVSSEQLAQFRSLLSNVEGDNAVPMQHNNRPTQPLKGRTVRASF

For orientation: Ki means the equilibrium dissociation constant of an inhibitor or competing ligand from its target. For orientation: IC50 means the concentration that inhibits the measured activity by half. With `Cc1cc(-c2ccc(S(N)(=O)=O)s2)cnc1-c1ccnc2ccccc12`, the Ki at Carbonic anhydrase 12 came out at 157 nM; at Carbonic anhydrase 1, 50 nM; at Carbonic anhydrase 9 it was 68.1 nM; on Carbonic anhydrase 2, 3.7 nM. Further, the IC50 in the assay with HeLa was determined as 105000 nM; in the assay with A549, 43500 nM; in the assay on MCF7 it was 16500 nM.

Turning to `NS(=O)(=O)c1ccc(-c2ccc(-c3ccnc4ccccc34)cn2)s1`, the Ki at Carbonic anhydrase 12 turned out to be 51 nM; on Carbonic anhydrase 1, 72.5 nM; at Carbonic anhydrase 9, 61.4 nM; at Carbonic anhydrase 2 it was 2.1 nM. In addition, the outcome in the assay with HeLa and in the assay with MCF7 was inactive. Besides, the IC50 in the assay on A549 was more than 500000 nM.

Consider `Cc1cc(-c2ccc(S(N)(=O)=O)s2)ccc1-c1ccnc2ccccc12`, for which the inhibition constant (Ki) at Carbonic anhydrase 12 stood at 41.8 nM; on Carbonic anhydrase 1, 35.6 nM; on Carbonic anhydrase 9, 106 nM; on Carbonic anhydrase 2, 5.5 nM.

For the molecule `NS(=O)(=O)c1ccc(-c2ccc(-c3cccc4ccccc34)cc2)cc1`, the Ki on Carbonic anhydrase 12 was 501 nM; on Carbonic anhydrase 1 it was 113 nM; at Carbonic anhydrase 9, 84.3 nM; at Carbonic anhydrase 2, 58.2 nM.

In the case of `Cc1cc(-c2ccc(S(N)(=O)=O)s2)cnc1-c1cccc2ncccc12`, the Ki turned out to be 86.3 nM on Carbonic anhydrase 12, 59 nM at Carbonic anhydrase 1, 29.8 nM on Carbonic anhydrase 9 and 3.2 nM on Carbonic anhydrase 2. The values for the IC50 in the assay with HeLa, with A549 and in the assay with MCF7 were 51000 nM, 68000 nM and 71000 nM, respectively.

For `Cc1cc(-c2cccc(S(N)(=O)=O)c2)cnc1-c1ccnc2ccccc12`, the Ki at Carbonic anhydrase 12 amounted to 450 nM; on Carbonic anhydrase 1, 479 nM; at Carbonic anhydrase 9, 215 nM; at Carbonic anhydrase 2, 88.6 nM.

For the molecule `NS(=O)(=O)c1cccc(-c2ccc(-c3cccc4ccccc34)cc2)c1`, the inhibition constant (Ki) on Carbonic anhydrase 12 is 558 nM; at Carbonic anhydrase 1, 698 nM; at Carbonic anhydrase 9, 331 nM; at Carbonic anhydrase 2, 144 nM.

As to `Cc1cc(-c2ccc(S(N)(=O)=O)s2)cnc1-c1cccc2ccccc12`, the Ki was found to be 212 nM at Carbonic anhydrase 12, 90.5 nM on Carbonic anhydrase 1, 29.3 nM on Carbonic anhydrase 9 and 7.3 nM at Carbonic anhydrase 2.

Regarding `Cc1cc(-c2ccc(S(N)(=O)=O)cc2)cnc1-c1ccnc2ccccc12`, the Ki on Carbonic anhydrase 12 worked out at 247 nM; at Carbonic anhydrase 1, 48.9 nM; on Carbonic anhydrase 9, 167 nM; on Carbonic anhydrase 2, 4.9 nM.

As for `Cc1cc(-c2ccc(S(N)(=O)=O)cc2)ccc1-c1cccc2ccccc12`, the Ki at Carbonic anhydrase 12 is 808 nM; on Carbonic anhydrase 1 it was 54.8 nM; at Carbonic anhydrase 9, 75.6 nM; at Carbonic anhydrase 2 it was 30.5 nM.

In the case of `Cc1cc(-c2ccc(S(N)(=O)=O)s2)ccc1-c1cccc2ccccc12`, the Ki worked out at 212 nM on Carbonic anhydrase 12, 67.5 nM on Carbonic anhydrase 1, 29.3 nM on Carbonic anhydrase 9 and 34.8 nM on Carbonic anhydrase 2. Further, the IC50 in the assay with HeLa was more than 500000 nM; in the assay with A549, 102000 nM; in the assay on MCF7 it was more than 500000 nM.

On to `NS(=O)(=O)c1ccc(-c2ccc(-c3cccc4ncccc34)cc2)s1`, for which the Ki on Carbonic anhydrase 12 worked out at 71.8 nM; at Carbonic anhydrase 1, 84.5 nM; on Carbonic anhydrase 9, 38.4 nM; at Carbonic anhydrase 2, 11.3 nM.

As for `Cc1cc(-c2cccc(S(N)(=O)=O)c2)ccc1-c1cccc2ccccc12`, the Ki at Carbonic anhydrase 12 is 386 nM; on Carbonic anhydrase 1 it was 670 nM; on Carbonic anhydrase 9, 86.2 nM; at Carbonic anhydrase 2 it was 101 nM.

In the case of `NS(=O)(=O)c1ccc(-c2ccc(-c3cccc4ccccc34)cc2)s1`, the Ki was 559 nM on Carbonic anhydrase 12, 92.8 nM at Carbonic anhydrase 1, 483 nM at Carbonic anhydrase 9 and 28.7 nM on Carbonic anhydrase 2. The values for the IC50 in the assay on HeLa, in the assay with A549 and in the assay on MCF7 were 24000 nM, 30000 nM and 69000 nM, respectively.

Take `NS(=O)(=O)c1ccc(-c2ccc(-c3cccc4ncccc34)cc2)cc1`: the Ki at Carbonic anhydrase 12 worked out at 552 nM; on Carbonic anhydrase 1, 85.8 nM; on Carbonic anhydrase 9, 72.1 nM; on Carbonic anhydrase 2, 33.3 nM.

Regarding `Cc1cc(-c2ccc(S(N)(=O)=O)s2)ccc1-c1cccc2ncccc12`, the Ki on Carbonic anhydrase 12 worked out at 79.4 nM; at Carbonic anhydrase 1, 71.7 nM; at Carbonic anhydrase 9, 27.2 nM; at Carbonic anhydrase 2, 5.7 nM. Moreover, the IC50 in the assay with HeLa worked out at 31000 nM; in the assay on A549 it was 22000 nM; in the assay on MCF7, 32000 nM.
